Laboratory results as given in patent US20180305332A1, “Bispiperidinyl Derivatives as Liver X Receptor Beta Agonists, Compositions, and Their Use” (Merck Sharp & Dohme Corp., priority 2015, published 2018).

How the values were obtained:
[1] = biological target: T1, GST tagged LXRbeta LBD (ligand binding domain) (Homo sapiens, UniProt P55055); assay: LanthaScreen TR-FRET Liver X Receptor Coactivator Assay, LXR beta-LBD; type: biochemical; conditions: relative to reference T0901317; for EC50: Inflection Point (potency), co-activator recruitment, read-out: LXR beta IP; for Emax: read-out: LXR beta act @ max dose (%)
T1 construct: purchased Invitrogen pv4658.pps
T1 sequence (P55055 222-460 limits assumed): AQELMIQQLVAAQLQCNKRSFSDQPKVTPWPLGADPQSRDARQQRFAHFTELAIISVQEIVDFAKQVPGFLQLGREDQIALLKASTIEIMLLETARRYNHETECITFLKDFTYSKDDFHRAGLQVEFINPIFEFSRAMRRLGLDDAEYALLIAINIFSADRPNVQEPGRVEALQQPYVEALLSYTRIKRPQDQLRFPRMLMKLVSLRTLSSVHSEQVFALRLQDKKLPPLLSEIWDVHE
Experimental: (§1) Potency (Inflection Point, IP) and efficacy (Emax) are evaluated via compound-induced co-activator recruitment to glutathione-S-transferase (GST) tagged LXRbeta and LXRalpha LBD (ligand binding domain) proteins in relation to reference dual agonist compound T0901317 (N-(2,2,2-Trifluoroethyl)-N-[4-[2,2,2-trifluoro-1-hydroxy-1-(trifluoromethyl)ethyl] phenyl]benzenesulfonamide) using the LanthaScreen™ TR-FRET Liver X Receptor Coactivator Assays according to manufacturer's instructions (Invitrogen catalog number pv4658.pps and pv4655). While running the LanthaScreen™ TR-FRET Liver X Receptor Coactivator Assay, LXR alpha-LBD or LXR beta-LBD was added to ligand test compounds followed by addition of a mixture of a fluorescein-labelled coactivator peptide and terbium-conjugated anti-GST antibody. After an incubation period at room temperature, TR-FRET (time-resolved fluorescence resonance energy transfer) was measured using a filter-based instrument capable of TR-FRET, e.g. PerkinElmer Envision.

[2] = biological target: T2, GST tagged LXRalpha LBD (ligand binding domain) (Homo sapiens, UniProt Q13133); assay: LanthaScreen TR-FRET Liver X Receptor Coactivator Assay, LXR alpha-LBD; type: biochemical; conditions: relative to reference T0901317; for EC50 / LXR alpha IP (nM): Inflection Point (potency), co-activator recruitment; for EC50: read-out: LXR alpha IP; for Emax: read-out: LXR alpha act @ max dose (%)
T2 construct: purchased Invitrogen pv4655
T2 sequence (Q13133 209-447 limits assumed): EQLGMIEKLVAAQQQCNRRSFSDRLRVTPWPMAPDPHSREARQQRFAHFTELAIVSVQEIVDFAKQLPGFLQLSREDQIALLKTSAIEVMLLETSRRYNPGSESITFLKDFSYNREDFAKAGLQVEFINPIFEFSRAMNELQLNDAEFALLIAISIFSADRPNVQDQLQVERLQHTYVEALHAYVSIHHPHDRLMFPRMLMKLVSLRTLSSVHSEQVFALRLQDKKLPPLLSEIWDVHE
Experimental: as §1

[3] = activity at max dose (efficacy)

Row | SMILES | EC50 [1] | Emax [1, 3] | EC50 [2] | Emax [2, 3] | LXR beta act @ max dose (%) [1, 3] | LXR alpha act @ max dose (%) [2, 3] | LXR alpha IP (nM) [2]
1 | CC(C)(C)OC(=O)NC1CN(C(=O)c2ccc(N3CCC(C4CCN(C(=O)[C@](O)(c5ccccc5)C(F)(F)F)CC4)CC3)cc2Cl)C1 [Example E-56, tert-butyl {1-[(2-chloro-4-{1′-[(2R)-3,3,3-trifluoro-2-hydroxy-2-phenylpropanoyl]-4,4′-bipiperidin-1-yl}phenyl)carbonyl]azetidin-3-yl}carbamate] | 21 nM | 89% | 488 nM | 45% |  |  | 
2 | O=C(c1ccc(N2CCC(C3CCN(C(=O)[C@](O)(c4ccccc4)C(F)(F)C(F)(F)F)CC3)CC2)cc1Cl)N1CCC[C@H]1CO [Example E-66, (2R)-1-[1′-(3-chloro-4-{[(2S)-2-(hydroxymethyl)pyrrolidin-1-yl]carbonyl}phenyl)-4,4′-bipiperidin-1-yl]-3,3,4,4,4-pentafluoro-1-oxo-2-phenylbutan-2-ol] | 12 nM | 126% | 211 nM | 72% |  |  | 
3 | COc1cccc(C(O)(C(=O)N2CCC(C3CCN(c4ccc(C(=O)N(C)C)c(Cl)c4)CC3)CC2)C(F)(F)C(F)(F)F)c1 (centres unmarked) [Example A-85, 2-chloro-N,N-dimethyl-4-{1′-[3,3,4,4,4-pentafluoro-2-hydroxy-2-(3-methoxyphenyl)butanoyl]-4,4′-bipiperidin-1-yl}benzamide] | 180 nM |  | 1120 nM |  | 115% | 41% | 
4 | CC(C)C(O)(C(=O)N1CCC(C2CCN(c3ccc(C(=O)N4CCCC4)c(Cl)c3)CC2)CC1)C(F)(F)F (centres unmarked) [Example E-7, 2-({1′-[3-chloro-4-(pyrrolidin-1-ylcarbonyl)phenyl]-4,4′-bipiperidin-1-yl}carbonyl)-1,1,1-trifluoro-3-methylbutan-2-ol] | 108 nM | 74% | 1920 nM | 32% |  |  | 
5 | CN(C)C(=O)c1ccc(N2CCC(C3CCN(C(=O)C4(c5ccc(Cl)c(Cl)c5)CCC4)CC3)CC2)cc1Cl [Example A-74, 2-chloro-4-(1′-{[1-(3,4-dichlorophenyl)cyclobutyl]carbonyl}-4,4′-bipiperidin-1-yl)-N,N-dimethylbenzamide] | 413 nM | 57% |  | 0% |  |  | NO IP
6 | CN(Cc1ccno1)C(=O)c1ccc(N2CCC(C3CCN(C(=O)[C@](O)(c4ccccc4)C(F)(F)F)CC3)CC2)cc1Cl [Example E-50, 2-chloro-N-(isoxazol-5-ylmethyl)-N-methyl-4-{1′-[(2R)-3,3,3-trifluoro-2-hydroxy-2-phenylpropanoyl]-4,4′-bipiperidin-1-yl}benzamide] | 349 nM | 74% | 1400 nM | 31% |  |  | 
7 | CN(C)C(=O)c1ccc(N2CCC(C3CCN(C(=O)C(F)(F)c4ccc(F)cc4)CC3)CC2)cc1Cl [Example A-63, 2-chloro-4-{1′-[difluoro(4-fluorophenyl)acetyl]-4,4′-bipiperidin-1-yl}-N,N-dimethylbenzamide] | 218 nM | 114% | 2880 nM | 52% |  |  | 
8 | O=C(c1ccc(N2CCC(C3CCN(C(=O)[C@](O)(c4ccccc4)C(F)(F)F)CC3)CC2)cc1Cl)N1CCCC1 [Example E-20] | 197 nM | 78% |  | 25% |  |  | NO IP
9 | CCCN(C)C(=O)c1ccc(N2CCC(C3CCN(C(=O)[C@](O)(c4ccccc4)C(F)(F)F)CC3)CC2)cc1Cl [Example E-61, 2-chloro-N-methyl-N-propyl-4-{1′-[(2R)-3,3,3-trifluoro-2-hydroxy-2-phenylpropanoyl]-4,4′-bipiperidin-1-yl}benzamide] | 100 nM | 94% | 1280 nM | 29% |  |  | 
10 | CN(C)C(=O)c1c(Cl)cc(N2CCC(C3CCN(C(=O)[C@](O)(c4ccccc4)C(F)(F)F)CC3)CC2)cc1Cl [Example A-33, 2,6-dichloro-N,N-dimethyl-4-{1′-[(2R)-3,3,3-trifluoro-2-hydroxy-2-phenylpropanoyl]-4,4′-bipiperidin-1-yl}benzamide] | 48 nM | 86% | 483 nM | 25% |  |  | 
11 | CC1(C)CCN(C(=O)c2ccc(N3CCC(C4CCN(C(=O)[C@](O)(c5ccccc5)C(F)(F)F)CC4)CC3)cc2Cl)C1 [Example E-28, (2R)-3-(1′-{3-chloro-4-[(3,3-dimethylpyrrolidin-1-yl)carbonyl]phenyl}-4,4′-bipiperidin-1-yl)-1,1,1-trifluoro-3-oxo-2-phenylpropan-2-ol] | 200 nM | 57% |  | 15% |  |  | NO IP
